This passage reports EC10, EC50 and Activity results from ChEMBL document CHEMBL1144368, “Synthesis of 15R-PGD2: a potential DP2 receptor agonist” (Bioorg Med Chem Lett, 2005).

Where only a bound is given, the exact number is not on record here.

What all share (type): functional
In test [1] the target is T1, Prostaglandin D2 receptor (Homo sapiens) (UniProt Q13258).
T1 sequence (whole entry): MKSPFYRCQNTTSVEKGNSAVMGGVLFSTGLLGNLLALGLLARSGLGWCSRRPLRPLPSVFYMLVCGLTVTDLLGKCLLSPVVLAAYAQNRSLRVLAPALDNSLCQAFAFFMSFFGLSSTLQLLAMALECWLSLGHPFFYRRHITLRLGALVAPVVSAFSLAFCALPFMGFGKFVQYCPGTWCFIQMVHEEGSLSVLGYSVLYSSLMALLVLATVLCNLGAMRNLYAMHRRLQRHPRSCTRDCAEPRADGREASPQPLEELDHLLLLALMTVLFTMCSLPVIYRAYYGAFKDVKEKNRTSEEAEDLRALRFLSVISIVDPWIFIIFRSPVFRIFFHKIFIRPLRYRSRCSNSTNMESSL
Description: Effective concentration for DP1 mediated cAMP formation in platelets. (In general: Changes in cAMP serve as a functional read-out for many G protein-coupled receptors.)

Test [2] has as its target T2, Prostaglandin D2 receptor 2 (Homo sapiens, UniProt Q9Y5Y4).
T2 sequence (Q9Y5Y4 whole entry): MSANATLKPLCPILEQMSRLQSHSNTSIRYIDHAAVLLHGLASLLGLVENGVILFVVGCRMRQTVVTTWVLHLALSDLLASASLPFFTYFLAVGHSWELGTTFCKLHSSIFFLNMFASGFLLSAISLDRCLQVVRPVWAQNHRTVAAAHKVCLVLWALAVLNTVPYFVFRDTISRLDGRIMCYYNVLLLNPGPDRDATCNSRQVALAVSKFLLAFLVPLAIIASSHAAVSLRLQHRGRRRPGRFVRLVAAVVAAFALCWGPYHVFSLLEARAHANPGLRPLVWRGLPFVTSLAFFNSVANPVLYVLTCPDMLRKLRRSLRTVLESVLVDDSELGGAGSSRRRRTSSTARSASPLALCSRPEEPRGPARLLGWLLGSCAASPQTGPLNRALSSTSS
As to the kind of experiment: Effective concentration for DP2 mediated stimulation of actin polymerization in eosinophils.

Test [3] concerns the target T1, Prostaglandin D2 receptor (Homo sapiens). As to the kind of experiment: Effective concentration for DP1 mediated cAMP formation in platelets was determined at 1 uM.
For test [4], the target named is T2, Prostaglandin D2 receptor 2. As to the kind of experiment: Effective concentration DP2 mediated expression of the adhesion molecule CD11b in eosinophils.
The target in test [5] is T3, Prostaglandin D2 receptor 2 (Homo sapiens) (UniProt Q9Y5Y4).
T3 sequence (whole entry): T2 sequence (Q9Y5Y4 whole entry)
Description: Percentage for DP2 mediated stimulation of actin polymerization in eosinophils was determined at 1 uM; (above control).

For orientation: EC10 means the point of the concentration-response curve where the effect stands at 10%. A high value points to a need for much substance. For orientation: EC50 means the concentration that produces a half-maximal response. Low values mean higher potency in that assay, high ones lower potency in that assay. In the case of `CCCCC[C@H](O)/C=C/[C@H]1C(=O)C[C@H](O)[C@@H]1CC=CCCCC(=O)O` [[3H]PGD2], the 10% effect level in test [1] (EC10) was put at 0.011 µM. Further, the EC50 in test [2] was 0.013 µM; in test [4], 0.007 µM. The Activity stood at 15.5 pmol in test [3] and 86.2% in test [5].
Compound `CCCCC[C@](C)(O)/C=C/[C@H]1C(=O)C[C@H](O)[C@@H]1C/C=C/CCCC(=O)O` displayed an EC10 in test [1] of 2.1 µM. The half-maximal effective concentration (EC50) in test [2] is 0.333 µM; in test [4], 0.099 µM.
As to `CCCCC[C@@H](O)/C=C/[C@H]1C(=O)C[C@H](O)[C@@H]1C/C=C/CCCC(=O)O`, the Activity stood at 0.83 pmol in test [3] and 83.8% in test [5].
Turning to `CCCCC[C@@](C)(O)/C=C/[C@H]1C(=O)C[C@H](O)[C@@H]1C/C=C/CCCC(=O)O`, in test [1], the EC10 is > 10 µM. Besides, the EC50 in test [2] turned out to be 0.0038 µM; in test [4], 0.0014 µM.
